Structures are written as SMILES.

Among the data in patent US10065945B2, “Isoquinoline derivatives as MGAT2 inhibitors” (Merck Sharp & Dohme Corp., priority 2014, dated 2018) are IC50 values, retold here.

MGAT2 Human, sequence (Q3SYC2 whole entry): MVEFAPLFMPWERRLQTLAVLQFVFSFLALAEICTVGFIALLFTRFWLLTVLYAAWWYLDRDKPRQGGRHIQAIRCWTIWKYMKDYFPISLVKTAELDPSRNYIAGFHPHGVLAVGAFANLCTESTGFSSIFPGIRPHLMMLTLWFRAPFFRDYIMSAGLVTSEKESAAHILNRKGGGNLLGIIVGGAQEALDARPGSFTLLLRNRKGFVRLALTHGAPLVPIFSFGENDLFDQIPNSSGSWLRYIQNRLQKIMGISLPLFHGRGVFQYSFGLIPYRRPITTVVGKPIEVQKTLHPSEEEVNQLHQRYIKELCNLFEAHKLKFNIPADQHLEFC

This assay has as its target MGAT2 Human (Homo sapiens (Human), UniProt Q3SYC2). Kind of assay: MGAT2 Human IC50. The format is biochemical.
Compound `C[C@H](c1ccc(OCC(F)(F)F)nc1)N1CCc2ccc(S(=O)(=O)Nc3cc(C(C)(C)F)on3)cc2C1` [Example 19, (R)—N-(5-(2-fluoropropan-2-yl)isoxazol-3-yl)-2-(1-(6-(2,2,2-trifluoroethoxy)pyridin-3-yl)ethyl)-1,2,3,4-tetrahydroisoquinoline-7-sulfonamide] displayed an IC50 of 18 nM. That is a double-digit nanomolar value.

With `Cc1c(NS(=O)(=O)c2ccc3c(c2)CN(Cc2ccc(OCC(F)(F)F)nc2)CC3)noc1C(C)(C)C` [Example 15, N-(5-(tert-butyl)-4-methylisoxazol-3-yl)-2-((6-(2,2,2-trifluoroethoxy)pyridin-3-yl)methyl)-1,2,3,4-tetrahydroisoquinoline-7-sulfonamide], the midpoint of inhibition, the IC50, lay at 11 nM.

As to `CCc1cnc(NS(=O)(=O)c2ccc3c(c2)CN([C@H](C)c2ccc(OCC(F)F)nc2)CC3)cn1` [Example 46, 2-((R)-1-(6-(2,2-difluoroethoxy)pyridin-3-yl)ethyl)-7-(N-(5-ethylpyrazin-2-yl)sulfamoyl)-1,2,3,4-tetrahydroisoquinolin-2-ium 2,2,2-trifluoroacetate], half-maximal inhibition (IC50) required 12.7 nM.

`CCc1ccc([C@@H](C)N2CCc3ccc(S(=O)(=O)Nc4noc(C(C)(C)C)c4C)cc3C2)cn1` [Example 42, (R)—N-(5-(tert-butyl)-4-methylisoxazol-3-yl)-2-(1-(6-ethylpyridin-3-yl)ethyl)-1,2,3,4-tetrahydroisoquinoline-7-sulfonamide]: the IC50 amounted to 8.2 nM.

Turning to `C[C@H](c1ccc(OCC(F)F)nc1)N1CCc2ccc(S(=O)(=O)Nc3cc(C(C)(C)C)on3)cc2C1` [Example 22], it took 6.4 nM to reach half-maximal inhibition (IC50). The IC50 values of the last two compounds are within 1.5-fold of each other.

For `CCCc1ccc(CN2CCc3ccc(S(=O)(=O)Nc4noc(C(C)(C)C)c4Br)cc3C2)cn1` [Example 41, N-(4-bromo-5-(tert-butyl)isoxazol-3-yl)-2-((6-propylpyridin-3-yl)methyl)-1,2,3,4-tetrahydroisoquinoline-7-sulfonamide], half-maximal inhibition (IC50) required 6.8 nM.

In turn, `C[C@H](c1cccc(Cl)c1)N1CCc2ccc(S(=O)(=O)Nc3cc(C(C)(C)C)on3)cc2C1` [Example 1, (R)—N-(5-(tert-butyl)isoxazol-3-yl)-2-(1-(3-chlorophenyl)ethyl)-1,2,3,4-tetrahydroisoquinoline-7-sulfonamide] showed an IC50 of 9 nM.

In the case of `C[C@H](c1cc(F)cc(F)c1)N1CCc2ccc(S(=O)(=O)Nc3nc(C(=O)NCC(F)(F)F)no3)cc2C1` [Example 54], it took 16 nM to reach half-maximal inhibition (IC50). This IC50 is about 1.8-fold higher than that of the compound before.

Take `C[C@H](c1cnc(OCC(F)(F)F)nc1)N1CCc2ccc(S(=O)(=O)Nc3noc(C(C)(C)C)c3-c3cccc(F)c3)cc2C1` [Example 11, (R)—N-(5-(tert-butyl)-4-(3-fluorophenyl)isoxazol-3-yl)-2-(1-(2-(2,2,2-trifluoroethoxy)pyrimidin-5-yl)ethyl)-1,2,3,4-tetrahydroisoquinoline-7-sulfonamide]: the IC50 was 20 nM. This IC50 and that of the compound before are within 1.5-fold of each other.

`C[C@H](c1ccc(OCC(F)(F)F)nc1)N1CCc2ccc(S(=O)(=O)Nc3noc(C(C)(C)C)c3CO)cc2C1` [Example 32, 7-(N-(5-(tert-butyl)-4-(hydroxymethyl)isoxazol-3-yl)sulfamoyl)-2-((R)-1-(6-(2,2,2-trifluoroethoxy)pyridin-3-yl)ethyl)-1,2,3,4-tetrahydroisoquinolin-2-ium 2,2,2-trifluoroacetate] displayed an IC50 of 19.8 nM.

With `Cc1c(NS(=O)(=O)c2ccc3c(c2)CN([C@H](C)c2cnc(OCC(F)F)cn2)CC3)noc1C(C)(C)C` [Example 25, 7-(N-(5-(tert-butyl)-4-methylisoxazol-3-yl)sulfamoyl)-2-((R)-1-(5-(2,2-difluoroethoxy)pyrazin-2-yl)ethyl)-1,2,3,4-tetrahydroisoquinolin-2-ium 2,2,2-trifluoroacetate], the IC50 turned out to be 4.6 nM.

With `C[C@H](c1ccc(OCC(F)(F)F)nc1)N1CCc2ccc(S(=O)(=O)Nc3cc(C(C)(C)O)on3)cc2C1` [Example 18, (R)—N-(5-(2-hydroxypropan-2-yl)isoxazol-3-yl)-2-(1-(6-(2,2,2-trifluoroethoxy)pyridin-3-yl)ethyl)-1,2,3,4-tetrahydroisoquinoline-7-sulfonamide], the IC50 was 23 nM.

Compound `COCCOc1ccc([C@@H](C)N2CCc3ccc(S(=O)(=O)Nc4cnc(C5CC5)cn4)cc3C2)cn1` [Example 48, 7-(N-(5-cyclopropylpyrazin-2-yl)sulfamoyl)-2-((R)-1-(6-(2-methoxyethoxy)pyridin-3-yl)ethyl)-1,2,3,4-tetrahydroisoquinolin-2-ium 2,2,2-trifluoroacetate] yielded an IC50 of 21.3 nM.

`COc1ccc(NS(=O)(=O)c2ccc3c(c2)CN([C@H](C)c2ccc(OCC(F)(F)F)nc2)CC3)nn1` [Example 49, (R)—N-(6-methoxypyridazin-3-yl)-2-(1-(6-(2,2,2-trifluoroethoxy)pyridin-3-yl)ethyl)-1,2,3,4-tetrahydroisoquinoline-7-sulfonamide] came in with an IC50 of 8.7 nM.

For the compound `C[C@H](c1ccc(OCC(F)(F)F)nc1)N1CCc2ccc(S(=O)(=O)Nc3ccc(C(C)(C)C)nn3)cc2C1` [Example 50, 7-(N-(6-(tert-butyl)pyridazin-3-yl)sulfamoyl)-2-((R)-1-(6-(2,2,2-trifluoroethoxy)pyridin-3-yl)ethyl)-1,2,3,4-tetrahydroisoquinolin-2-ium 2,2,2-trifluoroacetate], the IC50 amounted to 3.8 nM. Compared with the last compound, the IC50 is about 2.3-fold lower.

The compound `C[C@H](c1cc(F)cc(F)c1F)N1CCc2ccc(S(=O)(=O)Nc3cc(C(C)(C)C)on3)cc2C1` [Example 2, (R)—N-(5-(tert-butyl)isoxazol-3-yl)-2-(1-(2,3,5-trifluorophenyl)ethyl)-1,2,3,4-tetrahydroisoquinoline-7-sulfonamide] yielded an IC50 of 6 nM. Compared with the last compound, the IC50 is about 1.6-fold higher.

Take `C[C@H](c1ccc(OCC(F)(F)F)nc1)N1CCc2ccc(S(=O)(=O)Nc3cc(C(C)(C)C)on3)cc2C1` [Example 9, (R)—N-(5-(tert-butyl)isoxazol-3-yl)-2-(1-(6-(2,2,2-trifluoroethoxy)pyridin-3-yl)ethyl)-1,2,3,4-tetrahydroisoquinoline-7-sulfonamide]: inhibition was half-maximal at 11 nM (IC50).

`Cc1c(NS(=O)(=O)c2ccc3c(c2)CN(Cc2cnc(SCC(F)(F)F)nc2)CC3)noc1C(C)(C)C` [Example 20, N-(5-(tert-butyl)-4-methylisoxazol-3-yl)-2-((2-((2,2,2-trifluoroethyl)thio)pyrimidin-5-yl)methyl)-1,2,3,4-tetrahydroisoquinoline-7-sulfonamide] registered a half-inhibitory concentration (IC50) of 5.8 nM.

For the compound `CCCc1cnc(NS(=O)(=O)c2ccc3c(c2)CN([C@H](C)c2cc(F)cc(F)c2)CC3)cn1` [Example 38, (R)-2-(1-(3,5-difluorophenyl)ethyl)-N-(5-propylpyrazin-2-yl)-1,2,3,4-tetrahydroisoquinoline-7-sulfonamide], inhibition was half-maximal at 6 nM (IC50).

Take `Cc1c(NS(=O)(=O)c2ccc3c(c2)CN([C@H](C)c2ccc(OCC4CC(F)(F)C4)nc2)CC3)noc1C(C)(C)C` [Example 28, 7-(N-(5-(tert-butyl)-4-methylisoxazol-3-yl)sulfamoyl)-2-((R)-1-(6-((3,3-difluorocyclobutyl)methoxy)pyridin-3-yl)ethyl)-1,2,3,4-tetrahydroisoquinolin-2-ium 2,2,2-trifluoroacetate]: half-maximal inhibition (IC50) required 8.5 nM. The IC50 values of the last two compounds are within 1.5-fold of each other.

As for `CCOc1cnc([C@@H](C)N2CCc3ccc(S(=O)(=O)Nc4noc(-c5ccccc5)n4)cc3C2)cn1` [Example 37], 11.5 nM corresponded to half-maximal inhibition (IC50). This IC50 and that of the compound before are within 1.5-fold of each other.

On to `CCOC(=O)c1c(NS(=O)(=O)c2ccc3c(c2)CN([C@H](C)c2cc(F)cc(F)c2)CC3)noc1C(C)(C)C` [Example 33, (R)-ethyl 5-(tert-butyl)-3-(2-(1-(3,5-difluorophenyl)ethyl)-1,2,3,4-tetrahydroisoquinoline-7-sulfonamido)isoxazole-4-carboxylate], for which the IC50 is 3.7 nM.

Compound `CCNC(=O)c1noc(NS(=O)(=O)c2ccc3c(c2)CN([C@H](C)c2cc(F)cc(F)c2)CC3)n1` [Example 53] registered a concentration for half-maximal inhibition (IC50) of 7.1 nM. This IC50 is about 1.9-fold higher than that of the compound before.

For `CCOC(=O)c1noc(NS(=O)(=O)c2ccc3c(c2)CN([C@H](C)c2cc(F)cc(F)c2)CC3)n1` [Example 51, (R)-ethyl 5-(2-(1-(3,5-difluorophenyl)ethyl)-1,2,3,4-tetrahydroisoquinoline-7-sulfonamido)-1,2,4-oxadiazole-3-carboxylate], the IC50 is 14 nM.

For `C[C@H](c1cc(F)cc(F)c1)N1CCc2ccc(S(=O)(=O)Nc3nc(C(=O)N(C)C)no3)cc2C1` [Example 56], the IC50 worked out at 5.7 nM. Compared with the last compound, the IC50 is about 2.5-fold lower.

The compound `C/C=C/c1c(NS(=O)(=O)c2ccc3c(c2)CN(Cc2cnc(OCC(F)(F)F)s2)CC3)noc1C(C)(C)C` [Example 21, (E)-N-(5-(tert-butyl)-4-(prop-1-en-1-yl)isoxazol-3-yl)-2-((2-(2,2,2-trifluoroethoxy)thiazol-5-yl)methyl)-1,2,3,4-tetrahydroisoquinoline-7-sulfonamide] yielded an IC50 of 3.9 nM.

`C[C@H](c1cc(F)cc(F)c1)N1CCc2ccc(S(=O)(=O)Nc3nc(C(N)=O)no3)cc2C1` [Example 52, (R)-5-(2-(1-(3,5-difluorophenyl)ethyl)-1,2,3,4-tetrahydroisoquinoline-7-sulfonamido)-1,2,4-oxadiazole-3-carboxamide] came in with an IC50 of 31 nM. Compared with the last compound, the IC50 is about 7.9-fold higher.

`C[C@H](c1ccc(OCC(F)F)nc1)N1CCc2ccc(S(=O)(=O)Nc3noc(C4CC4)n3)cc2C1` [Example 23, (R)-5-cyclopropyl-3-(2-(1-(6-(2,2-difluoroethoxy)pyridin-3-yl)ethyl)-1,2,3,4-tetrahydroisoquinoline-7-sulfonamido)-1,2,4-oxadiazol-2-ium 2,2,2-trifluoroacetate] showed an IC50 of 8.2 nM.

Take `C[C@H](c1ccccc1)N1CCc2ccc(S(=O)(=O)Nc3cc(C(C)(C)C)on3)cc2C1` [Example 3, (R)—N-(5-(tert-butyl)isoxazol-3-yl)-2-(1-phenylethyl)-1,2,3,4-tetrahydroisoquinoline-7-sulfonamide]: the IC50 turned out to be 9 nM.

Regarding `CCCc1ccc([C@@H](C)N2CCc3ccc(S(=O)(=O)Nc4noc(C(C)(C)C)c4Br)cc3C2)cn1` [Example 43, (R)—N-(4-bromo-5-(tert-butyl)isoxazol-3-yl)-2-(1-(6-propylpyridin-3-yl)ethyl)-1,2,3,4-tetrahydroisoquinoline-7-sulfonamide], it took 1.6 nM to reach half-maximal inhibition (IC50). Compared with the last compound, the IC50 is about 5.6-fold lower.
